pIC50: −log10 of the molar value.
Columns and labels:
[1] = tested on: COLO205; test: cells; conditions: Homo sapiens, COLO 205, 72 h, read-out: MeB Cell Line IC50
[2] = tested on: prostate (PC3) tumor cell line; test: Methylene Blue Growth Inhibition Assay, PC3; type: cell-based; conditions: Homo sapiens, 72 h; PC3, 3 days; read-out: MeB Cell Line IC50
Description: (§1) II. Methylene Blue Growth Inhibition Assay
(§2) Medium was removed by aspiration.

[3] = tested on: colon (RKO) tumor cell line; test: Methylene Blue Growth Inhibition Assay, RKO; type: cell-based; conditions: Homo sapiens, 72 h, 3 days, read-out: MeB Cell Line IC50
Description: as §1, §2

[4] = tested on: breast tumor (MCF7) cell line; test: Methylene Blue Growth Inhibition Assay, MCF7; type: cell-based; conditions: Homo sapiens, 72 h; MCF7, 3 days; read-out: MeB Cell Line IC50
Description: as §1, §2

[5] = tested on: colon (HCT116) tumor cell line; test: Methylene Blue Growth Inhibition Assay, HCT116; type: cell-based; conditions: Homo sapiens, HCT-116, 72 h; HCT116, 3 days; read-out: MeB Cell Line IC50
Description: as §1, §2

[6] = tested on: IMR90; test: cells; conditions: Homo sapiens, IMR-90, 72 h, read-out: MeB Cell Line IC50
[7] = tested on: SAOS2; test: cells; conditions: Homo sapiens, SAOS-2, 72 h, read-out: MeB Cell Line IC50
[8] = tested on: lung (H460) tumor cell line; test: Methylene Blue Growth Inhibition Assay, H460; type: cell-based; conditions: Homo sapiens, NCI-H460, 72 h; H460, 3 days; read-out: MeB Cell Line IC50
Description: as §1, §2

[9] = tested on: Normal Human foreskin fibroblasts (HFF); test: Methylene Blue Growth Inhibition Assay, HFF; type: cell-based; conditions: 72 h, 3 days, read-out: MeB Cell Line IC50
Description: as §1, §2

[10] = tested on: MDA435; test: cells; conditions: MDA435, 72 h, read-out: MeB Cell Line IC50
[11] = molecular target: T1, truncated human PLK1 (kinase domain) (Homo sapiens, UniProt P53350); test: Assay for Inhibition of PLK1 (33P SPA enzyme activity); type: biochemical; conditions: 1 μM ATP, 2 nM enzyme; read-out: Ave pIC50 PLK Enzyme Inhibition (converted)
T1 construct: made in house; host or cells: baculovirus-infected T. ni insect cells
T1 sequence (P53350 21-346): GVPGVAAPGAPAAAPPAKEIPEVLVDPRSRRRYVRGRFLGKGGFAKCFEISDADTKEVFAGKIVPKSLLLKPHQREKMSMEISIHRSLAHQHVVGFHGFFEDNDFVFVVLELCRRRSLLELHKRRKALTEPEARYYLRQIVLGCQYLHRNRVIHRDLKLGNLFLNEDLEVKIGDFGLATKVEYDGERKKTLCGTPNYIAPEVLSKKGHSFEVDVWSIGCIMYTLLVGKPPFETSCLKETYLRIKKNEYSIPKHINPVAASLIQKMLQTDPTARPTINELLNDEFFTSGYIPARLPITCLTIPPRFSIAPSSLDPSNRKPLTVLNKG
Outline: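 Enzyme is the 6×His-tagged PLK1 kinase domain, purified by Ni-chelate and gel filtration. Compounds added in DMSO, then enzyme; reaction stopped with EDTA/streptavidin SPA bead mix containing 60 μM ATP, read by 33P scintillation proximity.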

Row | Compound | pIC50 [1] | pIC50 [2] | pIC50 [3] | pIC50 [4] | pIC50 [5] | pIC50 [6] | pIC50 [7] | pIC50 [8] | pIC50 [9] | pIC50 [10] | IC50 [11]
1 | COc1cc(Nc2ncc3c(C)nc(-c4ccccc4)n3n2)cc(OC)c1OC [Example 1, 5-Methyl-7-phenyl-N-(3,4,5-trimethoxyphenyl)imidazo[5,1-f][1,2,4]triazin-2-amine] | 5.00 to 6.00 | 4.52 to 5.00 | 5.00 to 6.00 | 5.00 to 6.00 | 5.00 to 6.00 | 4.52 to 5.00 | 5.00 to 6.00 | 5.00 to 6.00 | 4.52 to 5.00 | 5.00 to 6.00 | 
2 | CC(=O)Nc1ccc(Nc2ncc3c(C)nc(-c4cccc(C(F)(F)F)c4)n3n2)cc1 [Example 46, N-[4-({5-Methyl-7-[3-(trifluoromethyl)phenyl]imidazo[5,1-f][1,2,4]triazin-2-yl}amino)phenyl]acetamide] |  | 4.52 to 5.00 | 5.00 to 6.00 | 5.00 to 6.00 | 5.00 to 6.00 |  |  | 4.52 to 5.00 | 4.52 to 5.00 |  | < 0.1 µM
3 | Cc1nc(-c2cccc(C(F)(F)F)c2)n2nc(Nc3cccc(S(N)(=O)=O)c3)ncc12 [Example 41, 3-({5-Methyl-7-[3-(trifluoromethyl)phenyl]imidazo[5,1-f][1,2,4]triazin-2-yl}amino)benzenesulfonamide] |  | 4.52 to 5.00 | 5.00 to 6.00 | 5.00 to 6.00 | 5.00 to 6.00 |  |  | 5.00 to 6.00 | 4.52 to 5.00 |  | 0.1 to 10 µM
4 | COc1cc(Nc2ncc3c(C)nc(-c4cccc(Br)c4)n3n2)cc(OC)c1OC [Example 9, 7-(3-Bromophenyl)-5-methyl-N-(3,4,5-trimethoxyphenyl)imidazo-[5,1-f][1,2,4]triazin-2-amine] |  | 4.52 to 5.00 | 5.00 to 6.00 | 5.00 to 6.00 | 5.00 to 6.00 |  |  | 5.00 to 6.00 | 4.52 to 5.00 |  | < 0.1 µM
5 | COc1cc(Nc2ncc3c(C)nc(-c4cccc(C#N)c4)n3n2)cc(OC)c1OC [Example 8, 3-{5-Methyl-2-[(3,4,5-trimethoxyphenyl)amino]imidazo[5,1-f][1,2,4]triazin-7-yl}benzonitrile] |  | 4.52 to 5.00 | 4.52 to 5.00 | 4.52 to 5.00 | 4.52 to 5.00 |  |  | 4.52 to 5.00 | 4.52 to 5.00 |  | < 0.1 µM
6 | Cc1nc(-c2cccc(C(F)(F)F)c2)n2nc(Nc3cccc(CNC(=O)OC(C)(C)C)c3)ncc12 [Example 48, tert-Butyl 3-({5-methyl-7-[3-(trifluoromethyl)phenyl]imidazo[5,1-f][1,2,4]triazin-2-yl}amino)benzylcarbamate] |  | 4.52 to 5.00 | 5.00 to 6.00 | 4.52 to 5.00 | 4.52 to 5.00 |  |  | 4.52 to 5.00 | 4.52 to 5.00 |  | 0.1 to 10 µM
7 | COc1cc(Nc2ncc3c(C)nc(-c4ccc(C(F)(F)F)cc4)n3n2)cc(OC)c1OC [Example 24, 5-Methyl-7-[4-(trifluoromethyl)phenyl]-N-(3,4,5-trimethoxy-phenyl)imidazo[5,1-f][1,2,4]triazin-2-amine] |  | 4.52 to 5.00 | 4.52 to 5.00 | 4.52 to 5.00 | 4.52 to 5.00 |  |  | 4.52 to 5.00 | 4.52 to 5.00 |  | 0.1 to 10 µM
8 | COc1ccc(NC(C)=O)cc1Nc1ncc2c(C)nc(-c3cccc(C(F)(F)F)c3)n2n1 [Example 43, N-[4-Methoxy-3-({5-methyl-7-[3-(trifluoromethyl)phenyl]imidazo-[5,1-f][1,2,4]triazin-2-yl}amino)phenyl]acetamide] |  | 4.52 to 5.00 | 5.00 to 6.00 | 5.00 to 6.00 | 5.00 to 6.00 |  |  | 5.00 to 6.00 | 4.52 to 5.00 |  | < 0.1 µM
9 | CC(=O)Nc1cccc(Nc2ncc3c(C)nc(-c4cccc(C(F)(F)F)c4)n3n2)c1 [Example 47, N-[3-({5-Methyl-7-[3-(trifluoromethyl)phenyl]imidazo[5,1-f][1,2,4]triazin-2-yl}amino)phenyl]acetamide] |  | 4.52 to 5.00 | 4.52 to 5.00 | 4.52 to 5.00 | 5.00 to 6.00 |  |  | 4.52 to 5.00 | 4.52 to 5.00 |  | < 0.1 µM

— US7462614B2, “Imidazotriazine compounds” (Smithkline Beecham Corporation, priority 2003, dated 2008)
